From US20140213641A1, “POLYMERIC NANOPARTICLES FOR DRUG DELIVERY” (INSTITUT QUIMIC DE SARRIA, priority 2011, published 2014)
Read-outs that look alike come from different tables or passages of the source.

Key:
in vitro = conditions: human
Method: (§1) An ATP-lite assay was carried out over 48 to 72 hours in order to determine cytotoxicity of paclitaxel-loaded nanoparticles comprising a surface-modifying agent compared with that of paclitaxel and empty nanoparticles on healthy brain cell lines and determine IC50 values.
(§2) The formulations tested were as follows: vehicle, empty nanoparticles, decorated paclitaxel-loaded nanoparticles (3.33% paclitaxel by weight; decoration: SEQ ID #5) paclitaxel and etoposide (etoposide is described as having mild toxicity in treatment of brain cancer).
(§3) Three cell lines were tested. Normal human astrocytes (NHA; Lonza) are primary-derived cultures of adherent cells with limited number of divisions. Normal human […] (NHNP; primary cell line; Lonza) are neurosphere growing cells with high number of division that differentiate in adherent […] cells and neurons under specific conditions (laminin coated plates, induction with differentiation factors). Finally, immortalized human neural progenitors (RenCells; Millipore) are fetal brain cells transformed with c-myc oncogene.
(§4) Cells were incubated with treatment for 24 hours (astrocytes) and 72 hours (progenitor cell lines)

[1] = system: Immortalized human neural progenitors (ReNcells); conditions: 72 h, 50 μM
Method: as §1, §2, §3, §4

[2] = system: Normal human neural progenitors (NHNP); conditions: 72 h, 50 μM
Method: as §1, §2, §3, §4

CGL-1 cell line = assay: Clonogenic assay (soft agar colony formation); type: cell-based; conditions: 336 h, read-out: IC50 (concentration that inhibits 50% of clones); CGL1, experiment 3, serial dilutions 1:5, highest concentration 1000 nM, 14 days colony formation
Method: (§5) A clonogenic assay was carried out to observe the toxicity of decorated paclitaxel-loaded nanoparticles compared with that of paclitaxel and empty nanoparticles on glioma cell lines and determine IC50 values in a long term effect (2 to 3 weeks growth). Nanoparticles with or without a surface-modifying agent (SEQ ID#5) were formed according to the method of example 2, with or without inclusion of paclitaxel.
(§6) Three cells lines were used. The CGL-1 cell line (Oncodesign, Dijon, France) was isolated from the TG-1 tumour subcutaneously (SC) implanted in Nude rat. 14 days were allowed for colony formation. The human U-87 MG cell line (American Type Culture Collection) was initiated from a […] glioblastoma from a person. 21 days were allowed for colony formation. Finally, the LN-229 cell line (American Type Culture Collection) was established in 1979 from cells taken from a patient with right frontal parieto-occipital glioblastoma. 14-21 days were allowed for colony formation.
(§7) The formulations tested were as follows: nanoparticles (stock solution NaCl 0.9%); paclitaxel-loaded nanoparticles (3.33% paclitaxel by weight; stock solution NaCl 0.9%); and paclitaxel (stock solution DMSO 100%). All test substances diluted at 100 μM in their respective vehicle to obtain stock solutions. Five concentrations (1:5 or 1:3 dilution steps) were used in triplicate. Formulations were obtained by diluting stock solutions at 100 μM in their respective vehicle to obtain a series of five concentrations in 1:5 or 1:3 dilution steps. Each solution was then further diluted at 1:20 with RPMI 1640 before final dilution at 1:10 into soft agar.
(§8) Repetitions were carried out for GCL-1 at 2 nM, 8 nM, 40 nM, 200 nM and 1000 nM and for LN-229 at 1.2 nM, 3.7 nM, 11 nM, and 33 nM. At least 2 independent experiments were carried out with top concentrations and dilution steps changed when needed. Cells were incubated for 14 to 21 days with the different treatments.
(§9) Results are given in Table 4 and indicate the % survival from the initial 300 clones. Vehicle results not included (100% survival in all cases). The results are shown graphically in FIGS. 4, 5 and 6. Clonogenic tests are based on clones of cells and not cells alone.

LN-229 cell line = assay: Clonogenic assay (soft agar colony formation); type: cell-based; conditions: Homo sapiens
Method: as §5, §6, §7, §8, §9

U-87 MG cell line = assay: Clonogenic assay (soft agar colony formation); type: cell-based; conditions: Homo sapiens
Method: as §5, §6, §7, §8, §9

CGL1 = conditions: cells treated for few days, read-out: Paclitaxel metabolic assay (historical data) IC50; cited from earlier work
U87-MG [3] = conditions: cells treated for few days, read-out: Paclitaxel metabolic assay (historical data) IC50; cited from earlier work
U87-MG [4] = conditions: read-out: literature IC50 values for paclitaxel alone; cited from earlier work

| Structure (SMILES) | IC50 at 24 h (in vitro) | % survival [1] | % survival [2] | IC50 (CGL-1 cell line) | IC50 (LN-229 cell line; LN-229, read-out: IC50 (concentration that inhibits 50% of clones), LN229, experiment 4, serial dilutions 1:3, highest concentration 100 nM, 14-21 days colony formation) | IC50 (LN-229 cell line; LN-229, read-out: IC50 (concentration that inhibits 50% of clones), LN229, experiment 5, serial dilutions 1:3, highest concentration 100 nM, 14-21 days colony formation) | IC50 (U-87 MG cell line; 504 h, read-out: IC50 (concentration that inhibits 50% of clones), U87-MG, experiment 2, serial dilutions 1:5, highest concentration 500 nM, 21 days colony formation) | IC50 (U-87 MG cell line; 504 h, read-out: IC50 (concentration that inhibits 50% of clones), U87-MG, experiment 3, serial dilutions 1:5, highest concentration 500 nM, 21 days colony formation) | IC50 (U-87 MG cell line; U87-MG cells, test repeated, read-out: IC50, repeated test) | IC50 (CGL1) | IC50 (U87-MG [3]) | IC50 (U87-MG [4]) |
| --- | --- | --- | --- | --- | --- | --- | --- | --- | --- | --- | --- | --- |
| COc1cc([C@@H]2c3cc4c(cc3[C@@H](O[C@@H]3O[C@@H]5CO[C@@H](C)O[C@H]5[C@H](O)[C@H]3O)[C@H]3COC(=O)[C@H]23)OCO4)cc(OC)c1O [Etoposide, etoposide] | ~50000 nM | 3% | 21% |  |  |  |  |  |  |  |  |  |
| CC(=O)O[C@H]1C(=O)[C@@]2(C)[C@H]([C@H](OC(=O)c3ccccc3)[C@]3(O)C[C@H](OC(=O)[C@H](O)[C@@H](NC(=O)c4ccccc4)c4ccccc4)C(C)=C1C3(C)C)[C@]1(OC(C)=O)CO[C@@H]1C[C@@H]2O [Paclitaxel, paclitaxel] |  |  |  | 792 nM | 7.3 nM | 21 nM | 2.6 nM | 7.5 nM | 4 to 20 nM | > 100 nM | ~10 nM | 10 to 20 nM |
